The values below come from publication PMC13652807, “A co-evolved peptide-GPCR system senses host entry to drive fungal infection” (Nature Communications, 2026).

Positions count from the first letter of the chain named. Where a SMILES comes first, the peptide text is derived from it.

The target in one experiment is T1, Gpe1N246L+N247L (Mycosarcoma maydis, UniProt A0A0D1E6B3, N246L/N247L).
T1 construct: expressed in transfected cells; host or cells: Saccharomyces cerevisiae reporter strain, plasmid pIL0350 (made from pIL0186)
T1 sequence (A0A0D1E6B3 1-435 N246L/N247L): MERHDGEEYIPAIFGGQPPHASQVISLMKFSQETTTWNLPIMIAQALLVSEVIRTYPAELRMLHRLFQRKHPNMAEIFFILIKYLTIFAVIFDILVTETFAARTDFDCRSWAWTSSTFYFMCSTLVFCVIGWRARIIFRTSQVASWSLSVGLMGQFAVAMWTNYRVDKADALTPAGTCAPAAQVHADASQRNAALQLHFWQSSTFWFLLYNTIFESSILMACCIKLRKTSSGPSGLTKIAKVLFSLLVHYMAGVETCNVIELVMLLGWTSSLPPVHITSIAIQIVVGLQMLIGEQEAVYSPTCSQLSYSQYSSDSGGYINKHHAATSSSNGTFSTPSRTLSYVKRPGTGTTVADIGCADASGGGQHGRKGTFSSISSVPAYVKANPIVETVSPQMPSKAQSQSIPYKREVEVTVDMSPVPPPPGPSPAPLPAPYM
Kind of experiment: Dose-response in yeast reporter assay, Gpe1 N246L+N247L. It counts as cell-based, Ustilago maydis. As to conditions: Fig. 4e; receptor variant N246L+N247L. The method, then:
(§1) To test the functional relevance of this putative TM3–TM6 activation module, we generated Gpe1 variants targeting R133 and the adjacent TM6 residues N246 and N247 (Supplementary Fig. 5). Gpe1 variant activation was analyzed by the yeast reporter system. […] However, reduced activity of individual variants may also reflect effects on receptor stability or intracellular trafficking competence.
(§2) For the plasmid constructions, standard molecular cloning strategies and techniques were applied. For GPCR expression in S. cerevisiae, the ScSte2 expression vector pRS416[22] was digested with SpeI and XhoI to remove the ScSte2 gene. The pure backbone vector was used for classical restriction-ligation (T4 ligase) to clone the GPCR genes inside using unique restriction sites (SpeI and XhoI) added in the PCR gene amplification. For plasmid amplification, recombinant plasmids were transformed in chemically competent E. coli Top10 cells. […]
(§3) For dose response curves, 9 different concentrations (15 μM and […] five-fold dilutions starting at 8 μM peptide, sterile water was used as no peptide control) of the specific synthetic peptide were used. Experiments were performed in 96-well microtiter plates using a microplate reader (Tecan), and OD600 and red fluorescence were measured after 20 h. […]
For orientation: A reporter such as luciferase makes a cellular process visible.

The target in another experiment is T2, Gpe1R133A (Mycosarcoma maydis, UniProt A0A0D1E6B3, R133A).
T2 construct: expressed in transfected cells; host or cells: Saccharomyces cerevisiae reporter strain, plasmid pIL0373 (made from pIL0186)
T2 sequence (A0A0D1E6B3 1-435 R133A): T1 sequence (A0A0D1E6B3 1-435 N246L/N247L) with R133A, L246N, L247N
Kind of experiment: Dose-response in yeast reporter assay, Gpe1 R133A. The format is cell-based, Ustilago maydis. As to conditions: Fig. 4e; receptor variant R133A. The method, then:
as §1, §2, §3

In a further experiment the target is T3, Gpe1N246D+N247G (Mycosarcoma maydis, UniProt A0A0D1E6B3, N246D/N247G).
T3 construct: expressed in transfected cells; host or cells: Saccharomyces cerevisiae reporter strain, plasmid pIL0351 (made from pIL0186)
T3 sequence (A0A0D1E6B3 1-435 N246D/N247G): T1 sequence (A0A0D1E6B3 1-435 N246L/N247L) with L246D, L247G
The experiment in a line: Dose-response in yeast reporter assay, Gpe1 N246D+N247G. It counts as cell-based, Ustilago maydis. Conditions: Fig. 4e; receptor variant N246D+N247G; read-out: apparent EC50. The method, then:
as §1, §2, §3

The next experiment concerns the target T4, wild-type Gpe1 (Mycosarcoma maydis, UniProt A0A0D1E6B3).
T4 construct: expressed in transfected cells; host or cells: Saccharomyces cerevisiae JTy014-derived reporter strain, plasmid pIL0186 (pRS416 backbone)
T4 sequence (A0A0D1E6B3 1-435): T1 sequence (A0A0D1E6B3 1-435 N246L/N247L) with L246N, L247N
Kind of experiment: Dose-response of synthetic peptide in yeast reporter assay, wild-type Gpe1. The format is cell-based, Ustilago maydis. As to conditions: for EC50: 9 concentrations up to 15 µM, fluorescence after 20 h, four-parameter fit, Fig. 2b/2d, mean of three independent biological experiments. The method, then: Experiments were performed in 96-well microtiter plates using a microplate reader (Tecan), and OD600 and red fluorescence were measured after 20 h. A four-parameter non-linear regression model (curve fit) was used using Prism (GraphPad 5): Agonist concentration vs. response (variable slope). After analysis, EC50, basal activation, maximal activation and the Hill coefficient was extracted as previously described.

Experiment [1] concerns the target G-protein-coupled receptor promoting fungal in planta expansion 1 (Gpe1) (Ustilago maydis).
The test system of experiment [2] is UmGpe1 (Gpe1, UMAG_01374). The experiment in a line: GPCR activation assay in S. cerevisiae (yEmRFP reporter under FUS1 promoter), added protein/peptides. It counts as cell-based, Ustilago maydis.
Source text: To enable ligand identification, Gpe1 was then expressed in an engineered Saccharomyces cerevisiae strain to test receptor activation through production of a fluorescent reporter[22]. This strain is devoid of both endogenous mating GPCR genes (STE2 and STE3), all pheromone genes (MFA1/2 and MFALPHA1/MFALPHA2), BAR1, SST2 and FAR1[22]. And carries an unmodified version of ScGPA1, which is the homolog of U. maydis Gpa1[23]. The coupling of ScGPA1 with Gpe1, and later MAPK pathway activation, lead to the induction of a red fluorescent protein (yEmRFP) under control of the FUS1 promoter serves as readout.
The activation assays for each GPCR were performed as previously described with slight modifications[22]. […] Experiments were performed in 96-well microtiter plates using a microplate reader (Tecan), and OD600 and red fluorescence were measured after 8 h. Experiments were run in triplicate.
The mixture of tryptic-digested UmPit2 peptides were subjected to separation with a binary gradient of from 5 % to 95 % acetonitrile with a flowrate of 2 mL/min on an HPLC system (Agilent) for 60 min operated in a C-18 reverse phase column. The injection point was after 2 min and while the separation process was running, 2 mL sample was collected until fraction number 50. […]
A further experiment concerns S. cerevisiae Ste2. The experiment in a line: GPCR activation assay in S. cerevisiae, positive control. It counts as cell-based, Saccharomyces cerevisiae. Conditions: 10 µM α-factor, full agonist positive control; set to 100 %. The source says: Three extra- and intracellular loops connect the TMs, with the N-terminal 35 residues and the 38 residues of the second extracellular loop (ECL2) forming an extracellular extension (Fig. 1b). ECL2 is also predicted to be connected to TM3 via a disulfide bond formed by Cys178 and Cys108 (Fig. 1b), a hallmark of many rhodopsin-class GPCRs[21]. To enable ligand identification, Gpe1 was then expressed in an engineered Saccharomyces cerevisiae strain to test receptor activation through production of a fluorescent reporter. This strain is devoid of both endogenous mating GPCR genes (STE2 and STE3), all pheromone genes (MFA1/2 and MFALPHA1/MFALPHA2), BAR1, SST2 and FAR1[22]. And carries an unmodified version of ScGPA1, which is the homolog of U. maydis Gpa1[23]. The coupling of ScGPA1 with Gpe1, and later MAPK pathway activation, lead to the induction of a red fluorescent protein (yEmRFP) under control of the FUS1 promoter serves as readout. Western blot analysis confirmed expression of Gpe1 in S. cerevisiae (Supplementary Fig.1b).
The activation assays for each GPCR were performed as previously described with slight modifications. […] Experiments were performed in 96-well microtiter plates using a microplate reader (Tecan), and OD600 and red fluorescence were measured after 8 h. Experiments were run in triplicate.

As usually defined, the EC50 is the concentration at which the effect is half-maximal. For `CC(C)C[C@H](NC(=O)[C@H](CO)NC(=O)CNC(=O)[C@@H](NC(=O)[C@H](Cc1ccccc1)NC(=O)CNC(=O)[C@H](Cc1ccccc1)NC(=O)[C@H](Cc1c[nH]c2ccccc12)NC(=O)[C@@H](N)Cc1c[nH]c2ccccc12)[C@@H](C)O)C(=O)O` [Pit2.5] (H-WWFGFTGSL-OH), the EC50 was greater than 15000 nM on Gpe1N246L+N247L, greater than 15000 nM on Gpe1R133A, 400 nM on Gpe1N246D+N247G and 80 nM at wild-type Gpe1. Regarding `CC(C)C[C@H](NC(=O)[C@H](CO)NC(=O)[C@H](CC(C)C)NC(=O)[C@@H](NC(=O)[C@H](Cc1ccccc1)NC(=O)CNC(=O)[C@H](Cc1ccccc1)NC(=O)[C@H](Cc1c[nH]c2ccccc12)NC(=O)[C@@H](N)Cc1c[nH]c2ccccc12)[C@@H](C)O)C(=O)O` [pit2.17] (H-WWFGFTLSL-OH), a half-maximal effect at wild-type Gpe1 (EC50) was put at 23 nM. In the case of AWFGFTGSL [pit2.13], the “Receptor activation in dose-response (in words)” value on wild-type Gpe1 (Fig. 2d) is reported as “abolished receptor activation”. Take Pit2.5 (…) (peptide): in experiment [1], the EC50 of the yEmRFP reporter in S. cerevisiae, dose response with synthetic peptide was 80 nM. Further, the activation level (% activity) in the S. cerevisiae biosensor assay with UhGpe1 (Ustilago hordei) is 30%.

Pit2.5-G07L (peptide) registered an EC50 of the yEmRFP reporter in S. cerevisiae, dose response with synthetic peptide; maximum fluorescence reduced in experiment [1] of 23 nM. In the case of “Pit2: purified recombinant U. maydis effector protein Pit2 (UMAG_01375) lacking its signal peptide”, the “Gpe1 activation level, fluorescence normalized to the Ste2 activation being 100 %” value in experiment [2] (100 µM purified full-length Pit2 lacking signal peptide, red fluorescence after 8 h, mean of three independent biological experiments) is reported as ~ 25%. For the molecule SrPit2 peptide, the activation level (% activity) in the S. cerevisiae biosensor assay in the experiment with UhGpe1 (Ustilago hordei) turned out to be 45%. WWFGFTGSLGK: the “Identification as Gpe1 agonist” value in experiment [2] (peptide fractionation of tryptic Pit2 digest and mass spectrometry) is listed as “Gpe1 agonist”. In the case of α-factor, the “Ste2 activation, fluorescence level (normalization reference)” value in the experiment with S. cerevisiae Ste2 came to 100%.
